Data on 9 compounds can be found in patent US20070105961A1, “1-Amino-alkylcyclohexanes as 5-HT3 and neuronal nicotinic receptor antagonists” (MERZ PHARMA GMBH & CO. KGAA, priority 2000, published 2007).

Structures are written as SMILES.

T4 sequence (Q05941 23-502): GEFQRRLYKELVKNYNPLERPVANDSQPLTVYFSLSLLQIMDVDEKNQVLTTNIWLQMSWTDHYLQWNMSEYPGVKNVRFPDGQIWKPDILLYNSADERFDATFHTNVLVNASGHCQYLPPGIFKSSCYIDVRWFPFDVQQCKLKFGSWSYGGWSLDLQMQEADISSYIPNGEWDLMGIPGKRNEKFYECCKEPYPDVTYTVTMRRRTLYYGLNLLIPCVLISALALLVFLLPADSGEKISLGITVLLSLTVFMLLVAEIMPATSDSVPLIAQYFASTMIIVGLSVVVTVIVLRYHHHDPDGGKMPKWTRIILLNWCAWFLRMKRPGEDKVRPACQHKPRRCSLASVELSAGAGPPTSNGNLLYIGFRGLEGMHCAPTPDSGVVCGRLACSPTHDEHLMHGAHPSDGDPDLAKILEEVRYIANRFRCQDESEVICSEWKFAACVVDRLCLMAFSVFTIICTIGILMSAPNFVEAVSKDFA

One experiment concerns the target T1, NMDA receptors.
T1 construct: other: rat cortical membranes
Assay: not given
To be noted: read-out: [3H]MK (displacement of [3H]MK-801 binding); rat cortical membranes; Table 3; cited from earlier work. Background: In a radioligand displacement assay an active substance lowers the binding of a labelled ligand.
With `CC1(C)CCCC(C)(N)C1` (stereo not shown) [MRZ 2/621, 1-Amino-1,3,3-trimethylcyclohexane], the Ki was 30.6 µM.
Take `CC1(N)CCCCC1` [MRZ 2/641, 1-Amino-1-methylcyclohexane]: the Ki was 136 µM.
As to `CN(C)C1(C)CC(C)(C)CC(C)(C)C1` [MRZ 2/642, N,N-dimethyl-1-amino-1,3,3,5,5-pentamethylcyclohexane], the Ki was 10.7 µM.
As for `CC1(C)CC(C)(C)CC(C)(N2CCCC2)C1` [MRZ 2/705, N-(1,3,3,5,5-pentamethylcyclohexyl)pyrrolidine], the Ki is 7.09 µM.

The same experiment, now with this note: read-out: [3H]MK- (displacement of [3H]MK-801 binding); rat cortical membranes; Table 2; cited from earlier work.
With `C[C@@H]1CC(C)(C)C[C@@](C)(N)C1` (relative stereo) [MRZ 2/607, 1-Amino-1,3,3,5(trans)-tetramethylcyclohexane (axial amino group)], the Ki was 7.7 µM.
For the compound `CC[C@@H]1CC(C)(C)C[C@](C)(N)C1` (relative stereo) [MRZ 2/632, 1-Amino-1,3,3-trimethyl-5(cis)ethylcyclohexane], the Ki was 2.8 µM.
Regarding `CC[C@@H]1CC(C)(C)C[C@@](C)(N)C1` (relative stereo) [MRZ 2/633, 1-Amino-1,3,3-trimethyl-5(trans)ethylcyclohexane], the Ki is 4.7 µM.
Consider `CCCC1(N)CC(C)(C)CC(C)(C)C1` [MRZ 2/601, 1-Amino-1-propyl-3,3,5,5-tetramethylcyclohexane], for which the Ki is 7.7 µM.
With `CC1(C)CCCC(C)(N)C1` (stereo not shown) [MRZ 2/621, 1-Amino-1,3,3-trimethylcyclohexane], the Ki was 30.6 µM.
With `CNC1(C)CC(C)(C)CC(C)(C)C1` [MRZ 2/640, N-methyl-1-Amino-1,3,3,5.5-pentamethylcyclohexane], the Ki was 4.8 µM.
For `CN(C)C1(C)CC(C)(C)CC(C)(C)C1` [MRZ 2/642, N,N-dimethyl-1-amino-1,3,3,5,5-pentamethylcyclohexane], the Ki is 10.7 µM.

The target of the next experiment is T2, NMDA receptors.
T2 construct: PC NMDA (antagonism of NMDA-induced inward currents); other: at −70 mV, cultured rat hippocampal neurones; PC (PC NMDA, antagonism of NMDA-induced inward currents)
Assay: not given
Particulars: at −70 mV, cultured rat hippocampal neurones; Table 2; read-out: PC NMDA (antagonism of NMDA-induced inward currents); cited from earlier work.
Turning to `C[C@@H]1CC(C)(C)C[C@@](C)(N)C1` (relative stereo) [MRZ 2/607, 1-Amino-1,3,3,5(trans)-tetramethylcyclohexane (axial amino group)], the IC50 is 13.8 µM.
Regarding `CC[C@@H]1CC(C)(C)C[C@](C)(N)C1` (relative stereo) [MRZ 2/632, 1-Amino-1,3,3-trimethyl-5(cis)ethylcyclohexane], the IC50 is 6.4 µM.
As to `CC[C@@H]1CC(C)(C)C[C@@](C)(N)C1` (relative stereo) [MRZ 2/633, 1-Amino-1,3,3-trimethyl-5(trans)ethylcyclohexane], the IC50 is 13.9 µM.
In the case of `CCCC1(N)CC(C)(C)CC(C)(C)C1` [MRZ 2/601, 1-Amino-1-propyl-3,3,5,5-tetramethylcyclohexane], the IC50 is 10 µM.
Take `CC1(C)CCCC(C)(N)C1` (stereo not shown) [MRZ 2/621, 1-Amino-1,3,3-trimethylcyclohexane]: the IC50 was 92.4 µM.
As to `CNC1(C)CC(C)(C)CC(C)(C)C1` [MRZ 2/640, N-methyl-1-Amino-1,3,3,5.5-pentamethylcyclohexane], the IC50 is 14.6 µM.
With `CN(C)C1(C)CC(C)(C)CC(C)(C)C1` [MRZ 2/642, N,N-dimethyl-1-amino-1,3,3,5,5-pentamethylcyclohexane], the IC50 was 42.5 µM.

Staying with this experiment, now noted: at −70 mV, cultured rat hippocampal neurones; Table 3; read-out: PC (PC NMDA, antagonism of NMDA-induced inward currents); cited from earlier work.
Take `CC1(C)CCCC(C)(N)C1` (stereo not shown) [MRZ 2/621, 1-Amino-1,3,3-trimethylcyclohexane]: the IC50 was 92.4 µM.
`CC1(N)CCCCC1` [MRZ 2/641, 1-Amino-1-methylcyclohexane]: the IC50 was greater than 100 µM.
Consider `CN(C)C1(C)CC(C)(C)CC(C)(C)C1` [MRZ 2/642, N,N-dimethyl-1-amino-1,3,3,5,5-pentamethylcyclohexane], for which the IC50 is 42.5 µM.
Consider `CC1(C)CC(C)(C)CC(C)(N2CCCC2)C1` [MRZ 2/705, N-(1,3,3,5,5-pentamethylcyclohexyl)pyrrolidine], for which the IC50 is 20.8 µM.

For a further experiment, the target named is T3, 5-HT3 receptors (Mus musculus, UniProt P23979).
T3 construct: against “steady-state” responses of N1E-115 cells to serotonin (10 μM); host or cells: N1E-115 cells
T3 sequence (P23979 24-489): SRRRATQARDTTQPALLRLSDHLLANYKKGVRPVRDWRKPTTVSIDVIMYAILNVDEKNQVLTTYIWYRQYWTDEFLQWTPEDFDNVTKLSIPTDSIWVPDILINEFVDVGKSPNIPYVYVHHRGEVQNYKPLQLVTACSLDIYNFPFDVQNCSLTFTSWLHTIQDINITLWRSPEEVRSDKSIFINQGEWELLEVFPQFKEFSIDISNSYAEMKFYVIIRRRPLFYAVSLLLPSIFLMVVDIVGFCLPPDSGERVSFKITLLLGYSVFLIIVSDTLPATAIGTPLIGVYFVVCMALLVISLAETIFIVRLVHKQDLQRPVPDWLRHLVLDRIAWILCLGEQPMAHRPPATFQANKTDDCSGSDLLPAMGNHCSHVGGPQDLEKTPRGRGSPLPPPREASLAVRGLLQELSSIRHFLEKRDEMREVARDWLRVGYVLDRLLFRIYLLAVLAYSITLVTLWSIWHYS
Briefly: patch clamp, antagonism of serotonin-induced inward currents in N1E-115 cells. In kind it is cell-based. Particulars: serotonin (10 μM) applied for 2 secs, read-out: 5HT3 IC50 against steady-state responses. The protocol:
N1E-115 cells were purchased from the European collection of cell cultures (ECACC, Salisbury, UK) and stored at −80° C. until further use. The cells were plated at a density of 100,000 cells cm^−2 onto plastic Petri dishes (Falcon) and were nourished with NaHCO3/HEPES-buffered minimum essential medium (MEM) supplemented with 15% foetal calf serum (Gibco) and incubated at 37° C. with 5% CO2 at 95% humidity. The medium was exchanged completely daily. Once every three days, cells were re-seeded onto fresh Petri dishes following treatment with trypsin-EDTA (1% in PBS), resuspension in MEM, and centrifugation at 1000 for 4 mins.
Patch clamp recordings were made from lifted cells, 2-3 days following seeding with polished glass electrodes (2-3 MΩ) in the whole cell mode at room temperature (20-22° C.) with an EPC-7 amplifier (List). Test substances were applied as for hippocampal cells. The contents of the intracellular solution were as follows (mM): CsCl (130), HEPES (10), EGTA (10), MgCl2 (2), CaCl2 (2), K-ATP (2), Tris-GTP (0.2), D-Glucose (10); pH was adjusted to 7.3 with CsOH or HCl. The extracellular solutions had the following basic composition (mM): NaCl (124), KCl (2.8), HEPES (10), pH 7.3 with NaOH or HCl.
Only results from stable cells were accepted for inclusion in the final analysis, i.e., showing at least 75% recovery of responses to agonist (serotonin or Ach) following removal of the antagonist tested. Despite this, recovery from drug actions wasn't always 100% because of rundown in some cells (<=10% over 10 mins). When present, this was always compensated by basing the % antagonism at each concentration on both control and recovery and assuming a linear time course for this rundown. All antagonists were assessed at steady-state blockade with 3 to 6 concentrations on at least 5 cells. Equilibrium blockade was achieved within 2 to 5 agonist applications, depending on antagonist concentration.
FIG. 1A and FIG. 1B show concentration-dependence of the blockade of 5HT3 receptors by MRZ 2/633 in cultured N1E-115 cells. Serotonin (10 μM) was applied for 2 seconds every 30 seconds in the continuous presence of various concentrations of MRZ 2/633 (1-10 μM).
B: Peak and steady-state (plateau) serotonin current responses were normalized to control levels and plotted as means (±SEM) against MRZ 2/633 concentration (n=8). Estimation of IC50s and curve fitting were made according to the 4 parameter logistic equation (GraFit, Erithacus Software).
For orientation: In patch-clamp work, channel activity is measured electrically.
With `C[C@@H]1CC(C)(C)C[C@@](C)(N)C1` (relative stereo) [MRZ 2/607, 1-Amino-1,3,3,5(trans)-tetramethylcyclohexane (axial amino group)], the IC50 worked out at 22.3 µM.
The same measure, in the same setting: for `CC[C@@H]1CC(C)(C)C[C@](C)(N)C1` (relative stereo) [MRZ 2/632, 1-Amino-1,3,3-trimethyl-5(cis)ethylcyclohexane] the value was 2.4 µM; for `CC[C@@H]1CC(C)(C)C[C@@](C)(N)C1` (relative stereo) [MRZ 2/633, 1-Amino-1,3,3-trimethyl-5(trans)ethylcyclohexane], 7.7 µM; for `CCCC1(N)CC(C)(C)CC(C)(C)C1` [MRZ 2/601, 1-Amino-1-propyl-3,3,5,5-tetramethylcyclohexane], 1.3 µM.
Take `CC1(C)CCCC(C)(N)C1` (stereo not shown) [MRZ 2/621, 1-Amino-1,3,3-trimethylcyclohexane]: the IC50 amounted to 20.3 µM.
With `CNC1(C)CC(C)(C)CC(C)(C)C1` [MRZ 2/640, N-methyl-1-Amino-1,3,3,5.5-pentamethylcyclohexane], the IC50 turned out to be 10.8 µM.
With `CN(C)C1(C)CC(C)(C)CC(C)(C)C1` [MRZ 2/642, N,N-dimethyl-1-amino-1,3,3,5,5-pentamethylcyclohexane], the IC50 is 35.5 µM.

Another experiment has as its target T4, α7 neuronal nicotinic receptors (Rattus norvegicus, UniProt Q05941).
T4 construct: against peak responses of cultured hippocampal neurones to Ach (1 mM) applied for 2 secs; endogenous in cells; host or cells: cultured rat embryonic hippocampal neurones
Put plainly: patch clamp, antagonism of Ach-induced inward currents in cultured hippocampal neurones. In kind it is cell-based.
Details: not given
For the compound `CC1(C)CCCC(C)(N)C1` (stereo not shown) [MRZ 2/621, 1-Amino-1,3,3-trimethylcyclohexane], the IC50 amounted to 0.65 µM.
Still for that read-out and setting: for `CN(C)C1(C)CC(C)(C)CC(C)(C)C1` [MRZ 2/642, N,N-dimethyl-1-amino-1,3,3,5,5-pentamethylcyclohexane] the value was 1 µM.

Staying with this experiment, now noted: Table 3 and FIG. 4.
`CC1(C)CC(C)(C)CC(C)(N2CCCC2)C1` [MRZ 2/705, N-(1,3,3,5,5-pentamethylcyclohexyl)pyrrolidine]: the “fold more effective as α7 neuronal nicotinic antagonist than as NMDA receptor antagonist” value is given as 16 fold.

Staying with this experiment, now noted: cultured hippocampal neurones, Ach (1 mM) applied for 2 secs; read-out: PC Ach IC50 against peak responses.
Consider `CC1(N)CCCCC1` [MRZ 2/641, 1-Amino-1-methylcyclohexane], for which the IC50 was 2.4 µM.
As to `CC1(C)CC(C)(C)CC(C)(N2CCCC2)C1` [MRZ 2/705, N-(1,3,3,5,5-pentamethylcyclohexyl)pyrrolidine], the IC50 was found to be 1.3 µM.
